Description: An algorithm was developed to correlate a known oral dose of methotrexate to a jet injector dose. Table 1 illustrates the calculated correlation between oral doses and needle-assisted jet injector doses of methotrexate. The second column illustrates the precise subcutaneous dose calculated based on the algorithm, described in detail below. The third column represents the administrable dose, based on commercially available doses, closest in value to the precise calculated dose.
Based on the data set forth in table 1, a line equation of y=mx+b was developed to correlate an oral dose of methotrexate to an equivalent dose for use with a jet injector. In the present equation, illustrated by the graph shown in FIG. 1, the slope, m, was determined to be 0.6101 and a y-intercept, b, to be 2.9274. The correlation coefficient of the line, R^2, is 0.9594.

- slope, m, of line equation y=mx+b correlating oral dose to equivalent jet injector dose: 0.6101
- y-intercept, b, of line equation y=mx+b correlating oral dose to equivalent jet injector dose: 2.9274
Compound: CN(Cc1cnc2nc(N)nc(N)c2n1)c1ccc(C(=O)N[C@@H](CCC(=O)O)C(=O)O)cc1 [methotrexate]

From US20140107568A1, “METHOD OF DETERMINING AN INJECTED DOSE BASED ON A KNOWN ORAL DOSE” (ANTARES PHARMA, INC., priority 2012, published 2014)
